In PMC8556396, “Statin-mediated disruption of Rho GTPase prenylation and activity inhibits respiratory syncytial virus infection” (Communications Biology, 2021):
Where a name gives a salt, the structure may show the parent alone.

Test system: RSV-GFP
Assay: microbe, parasite or virus in culture
Format: cell-based, Respiratory syncytial virus
Conditions: 10.0 µM, HEp-2, RSV-GFP MOI 0.5, single replicate
Protocol: The following morning, cells were washed twice with serum-free EMEM and treated with RSV-GFP (MOI 0.5) in a minimal volume of serum-free media for 90 min under frequent agitation. Unbound virus was then removed and replaced with fresh serum-containing EMEM. All drug additions were performed 2 h post-viral exposure, unless otherwise stated.
Automated quantification of infection rates from fluorescent images were performed in CellProfiler (v2.2.0)[86]. Major steps in the image analysis pipeline included: (1) background subtraction and smoothing, (2) segmentation of nuclei, (3) segmentation of GFP-fluorescent area, (4) object masking, and (5) measurement of nuclear number, size, and intensity. Infection rate was quantified from the ratio of nuclei within GFP-fluorescent area to the total number of nuclei (Fig. 1b). This method of analysis accounts for in vitro syncytium formation induced by RSV, whereby a single infected cell may arise from the fusion of multiple cells. Mean nuclear fluorescent intensity and size was quantified as a measure of cell viability.
The MicroSource […] Collection (Discovery Systems Inc.) consisting of 2400 compounds was screened using the previously outlined RSV-GFP infection assay protocol. Robot-assisted addition of drugs was performed within 1 h of RSV-GFP infection and infection rates were assayed 48 h p.i. Drugs were provided as 10 mM stocks in DMSO and serial diluted to a final concentration of 10 µM, resulting in a final DMSO concentration of 0.1% v/v. […] Hits were selected based on the criteria that: (a) the tested drug caused a >50% reduction in infection rate and (b) was not overtly cytotoxic (<10% change in mean nuclear intensity relative to DMSO control). Z-factors were calculated on a per-plate basis to monitor assay quality.

| Compound | RSV-GFP inhibition (%) |
| --- | --- |
| CC1(C)C(=O)C=C[C@]2(C)[C@H]3CC[C@@]4(C)[C@H](c5ccoc5)OC(=O)[C@H]5O[C@]54[C@]3(C)C=C[C@@H]12 [7-Desacetoxy-6,7-dehydrogedunin] | 69.38 |
| COc1cc2c(cc1OC)[C@@H]1C(=O)c3c(O)cc4c(c3O[C@@H]1CO2)C=CC(C)(C)O4 [Alpha-toxicarol] | 63.58 |
| CC(=O)Oc1cc2c(c(C)c1OC(C)=O)CC=C1[C@@]2(C)CC[C@@]2(C)C3C[C@](C)(C(=O)O)CC[C@]3(C)CC[C@]12C (some centres unmarked) [Dihydrocelastryl diacetate] | 89.96 |
| CCc1c2c(nc3ccc(OC(=O)N4CCC(N5CCCCC5)CC4)cc13)-c1cc3c(c(=O)n1C2)COC(=O)[C@]3(O)CC.Cl [Irinotecan hydrochloride] | 55.56 |
| O=C1[O][Pt]2([NH][C@@H]3CCCC[C@H]3[NH]2)[O]C1=O [Oxaliplatin] | 88.7 |
| CC[C@@H](C(=O)[C@@H](C)[C@@H](O)[C@H](C)[C@@H]1O[C@@H]([C@@H](CC)C(=O)O)CC[C@@H]1C)[C@H]1O[C@]2(C=C[C@@H](O)[C@]3(CC[C@@](C)([C@H]4CC[C@](O)(CC)[C@H](C)O4)O3)O2)[C@H](C)C[C@@H]1C [Salinomycin, sodium] | 96.45 |
| CC(=O)OC1CCC23C(=O)OC45CCC(C6=CC(=O)OC6)C4(C)CCC2C5CCC3(O)C1 (centres unmarked) [Strophanthidinic acid lactone acetate] | 82.33 |
| Antimycin A1 | 79.49 |
| Benzalkonium chloride | 77.34 |

Same assay, conditions: HEp-2, RSV-GFP

| Compound | RSV inhibition in the screen |
| --- | --- |
| CC(C)n1c(/C=C/C(O)CC(O)CC(=O)O)c(-c2ccc(F)cc2)c2ccccc21 (centres unmarked) [Fluvastatin] | inhibit RSV at low micromolar concentrations |
| O=C(O)C[C@H](O)C[C@H](O)/C=C/c1c(C2CC2)nc2ccccc2c1-c1ccc(F)cc1 [Pitavastatin calcium] | inhibit RSV at low micromolar concentrations |

Same assay, conditions: human respiratory syncytial virus, HEp-2, read-out: RSV-GFP inhibition (%)

| Compound | inhibition at 10 µM [%] |
| --- | --- |
| C#C[C@]1(OC(C)=O)CC[C@H]2[C@@H]3CCC4=CC(=NO)CC[C@@H]4[C@H]3CC[C@@]21CC (mixture of isomers) [Norgestimate] | 55 |
| C#CC1(O)CC[C@H]2[C@@H]3CCC4=CC(=O)CC[C@@H]4[C@H]3CC[C@@]21CC (mixture of isomers) [Norgestrel] | 64.1 |
| COc1ccc(-c2cc(=O)c3ccccc3o2)cc1 [4’-Methoxyflavone] | 59.9 |
| O=c1cc(-c2ccc(O)cc2)oc2ccc(O)cc12 [6,4’-Dihydroxyflavone] | 75.3 |
| CCCCC(CC)CNC(=N)NC(=N)NCCCCCCNC(=N)NC(=N)NCC(CC)CCCC (centres unmarked) [Alexidine hydrochloride] | 66.8 |
| Nc1c2ccccc2nc2ccccc12 [Aminacrine] | 58.3 |
| CC[C@@]1(O)C(=O)OCc2c1cc1n(c2=O)Cc2cc3ccccc3nc2-1 [Camptothecin] | 55.7 |
| CCCCCCCCCCCCCCCC[N+](C)(C)C [Cetrimonium bromide] | 71.2 |
| Cc1nc2ccccc2n1Cc1ccc(Cl)cc1 [Chlormidazole] | 68.5 |
| C=C[C@@]1(C)CC(=O)[C@]2(O)[C@@]3(C)[C@@H](O)CCC(C)(C)[C@@H]3[C@H](O)[C@H](OC(C)=O)[C@@]2(C)O1 [Colforsin] | 72.5 |
| C[C@@H]1C[C@@H]([C@H](O)CC2CC(=O)NC(=O)C2)C(=O)[C@@H](C)C1 [Cycloheximide] | 75 |
| CC1=C2C[C@H]3[C@@H](CC=C4C[C@@H](O)CC[C@@]43C)[C@@H]2CC[C@]12O[C@@H]1C[C@H](C)CN[C@H]1[C@H]2C [Cyclopamine] | 86 |
| Cc1cc(N)c2ccccc2[n+]1CCCCCCCCCC[n+]1c(C)cc(N)c2ccccc21 [Dequalinium chloride] | 63.8 |
| C[C@]12CC[C@H](O)C[C@H]1CC[C@@H]1[C@@H]2C[C@@H](O)[C@]2(C)[C@@H](C3=CC(=O)OC3)CC[C@]12O [Digoxigenin] | 85.1 |
| Cc1c(O)c(O)cc2c1CC=C1[C@@]2(C)CC[C@@]2(C)[C@@H]3C[C@](C)(C(=O)O)CC[C@]3(C)CC[C@]12C [Dihydrocelastrol] | 82.6 |
| C[C@]12CCC(=O)C=C1[C@@H]1C[C@@H]1[C@H]1[C@@H]3[C@@H]4C[C@@H]4[C@@]4(CCC(=O)O4)[C@@]3(C)CC[C@@H]12 [Drospirenone] | 68.3 |
| CC[C@H]1CN2CCc3cc(OC)c(OC)cc3[C@@H]2C[C@@H]1C[C@H]1NCCc2cc(OC)c(OC)cc21 [Emetine dihydrochloride] | 100 |
| CC(C)n1c(/C=C/C(O)CC(O)CC(=O)O)c(-c2ccc(F)cc2)c2ccccc21 (centres unmarked) [Fluvastatin] | 73.2 |
| CN(C)c1ccc(C(=C2C=CC(=[N+](C)C)C=C2)c2ccc(N(C)C)cc2)cc1 [Gentian violet] | 86.3 |
| CC(=O)O[C@H]1CC[C@@]2(C)[C@H](CC[C@@H]3[C@@H]2CC[C@]2(C)[C@@H](C4=CC(=O)OC4)[C@@H](OC(C)=O)C[C@]32O)C1 [Gitoxigenin diacetate] | 91.8 |

| Compound | inhibition at 10 µM [%] |
| --- | --- |
| C[C@H]1O[C@@H](O[C@H]2[C@@H](O)C[C@H](O[C@H]3[C@@H](O)C[C@H](O[C@H]4CC[C@@]5(C)[C@H](CC[C@@H]6[C@@H]5CC[C@]5(C)[C@@H](C7=CC(=O)OC7)[C@@H](O)C[C@]65O)C4)O[C@@H]3C)O[C@@H]2C)C[C@H](O)[C@@H]1O [Gitoxin] | 85.7 |
| Oc1c(Cl)cc(Cl)c(Cl)c1Cc1c(O)c(Cl)cc(Cl)c1Cl [Hexachlorophene] | 83.2 |
| CC(=O)O[C@H]1C[C@H](O[C@H]2[C@@H](O)C[C@H](O[C@H]3[C@@H](O)C[C@H](O[C@H]4CC[C@@]5(C)[C@H](CC[C@@H]6[C@@H]5C[C@@H](O)[C@]5(C)[C@@H](C7=CC(=O)OC7)CC[C@]65O)C4)O[C@@H]3C)O[C@@H]2C)O[C@H](C)[C@H]1O[C@@H]1O[C@H](CO)[C@@H](O)[C@H](O)[C@H]1O [Lanatoside C] | 100 |
| CN(C)c1ccc2nc3ccc(=[N+](C)C)cc-3sc2c1 [Methylene blue] | 67.8 |
| CC[C@@]1([C@@H]2O[C@@H]([C@H]3O[C@@](O)(CO)[C@H](C)C[C@@H]3C)C[C@@H]2C)CC[C@H]([C@]2(C)CC[C@]3(C[C@H](O)[C@@H](C)[C@@H]([C@@H](C)[C@@H](OC)[C@H](C)C(=O)O)O3)O2)O1 [Monensin A] | 93.9 |
| COc1c(C)c2c(c(O)c1C/C=C(\C)CCC(=O)OCCN1CCOCC1)C(=O)OC2 [Mycophenolate mofetil] | 98.4 |
| COc1c(C)c2c(c(O)c1C/C=C(\C)CCC(=O)O)C(=O)OC2 [Mycophenolic acid] | 98.8 |
| CCCCCCCCCc1ccc(OCCOCCOCCOCCOCCOCCOCCOCCOCCO)cc1 [Nonoxynol-9] | 69.2 |
| C#C[C@]1(OC(C)=O)CC[C@H]2[C@@H]3CCC4=CC(=O)CC[C@@H]4[C@H]3CC[C@@]21C [Norethindrone acetate] | 54.2 |
| C#C[C@]1(O)CC[C@H]2[C@@H]3CCC4=C(CCC(=O)C4)[C@H]3CC[C@@]21C [Norethynodrel] | 75.4 |
| C[C@@H]1O[C@@H](O[C@H]2C[C@@H](O)[C@]3(CO)[C@H]4[C@H](O)C[C@]5(C)[C@@H](C6=CC(=O)OC6)CC[C@]5(O)[C@@H]4CC[C@]3(O)C2)[C@H](O)[C@H](O)[C@H]1O [Ouabain] | 100 |
| N=C(N)c1ccc(OCCCCCOc2ccc(C(=N)N)cc2)cc1 [Pentamidine isethionate] | 60.2 |
| CO[C@H]1[C@H](O)[C@H](O[C@H]2CC[C@@]3(C=O)[C@H](CC[C@@H]4[C@@H]3CC[C@]3(C)[C@@H](C5=CC(=O)OC5)CC[C@]43O)C2)O[C@@H](C)[C@@H]1O [Peruvoside] | 98.2 |
| O=C(O)C[C@H](O)C[C@H](O)/C=C/c1c(C2CC2)nc2ccccc2c1-c1ccc(F)cc1 [Pitavastatin calcium] | 63.4 |
| COC(=O)[C@]1(C)CC[C@]2(C)CC[C@]3(C)C4=CC=C5C(=CC(=O)C(O)=C5C)[C@]4(C)CC[C@@]3(C)[C@@H]2C1 [Pristimerin] | 74.1 |
| CC(=O)[C@H]1CC[C@H]2[C@@H]3CCC4=CC(=O)CC[C@]4(C)[C@H]3CC[C@]12C [Progesterone] | 50.5 |
| C[C@@H]1O[C@@H](O[C@@H]2C=C3CC[C@@H]4[C@H](CC[C@]5(C)[C@@H](c6ccc(=O)oc6)CC[C@]45O)[C@@]3(C)CC2)[C@H](O)[C@H](O)[C@H]1O [Proscillaridin] | 81.6 |
| C[C@]12CC[C@H]3[C@@H](CC[C@]4(O)C[C@@H](O)CC[C@]34C=O)[C@@]1(O)CC[C@@H]2C1=CC(=O)OC1 [Strophanthidin] | 90.4 |
| CCC(=O)O[C@H]1CC[C@H]2[C@@H]3CCC4=CC(=O)CC[C@]4(C)[C@H]3CC[C@]12C [Testosterone propionate] | 84.7 |
